In patent US6737383B1, “Herbicidal oxadiazolidines” (priority 1999, dated 2004):

Legend:
[1] = test system: crabgrass; test: Test B pre/postemergence crabgrass; assay type: in vivo, Digitaria sanguinalis
Summary of the method: (§1)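 Herbicidal effect was estimated by eye on a ten-point control scale after plants spent twelve to sixteen days in a greenhouse following soil or foliar treatment. Foliar sprays targeted plants at one to four leaves; all doses were formulated in a non-phytotoxic solvent with surfactant.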

[2] = test system: bedstraw; test: Test B pre/postemergence bedstraw; assay type: in vivo, Galium aparine
Summary of the method: as §1

[3] = test system: wild oat; test: Test B pre/postemergence wild oat; assay type: in vivo, Avena fatua
Summary of the method: as §1

[4] = test system: giant foxtail; test: Test B pre/postemergence giant foxtail; assay type: in vivo, Setaria faberii
Summary of the method: as §1

[5] = test system: corn; test: Test B pre/postemergence corn; assay type: in vivo, Zea mays
Summary of the method: as §1

[6] = test system: wheat; test: Test B pre/postemergence wheat; assay type: in vivo, Triticum aestivum
Summary of the method: as §1

[7] = test system: blackgrass; test: Test B pre/postemergence blackgrass; assay type: in vivo, Alopecurus myosuroides
Summary of the method: as §1

[8] = test system: cocklebur; test: Test B pre/postemergence cocklebur; assay type: in vivo, Xanthium strumarium
Summary of the method: as §1

[9] = test system: sugar beet; test: Test B pre/postemergence sugar beet; assay type: in vivo, Beta vulgaris
Summary of the method: as §1

[10] = test system: pigweed; test: Test B pre/postemergence pigweed; assay type: in vivo, Amaranthus retroflexus
Summary of the method: as §1

[11] = test system: soybean; test: Test B pre/postemergence soybean; assay type: in vivo, Glycine max
Summary of the method: as §1

[12] = test system: rape; test: Test B pre/postemergence rape; assay type: in vivo, Brassica napus
Summary of the method: as §1

[13] = test system: purple nutsedge; test: Test B pre/postemergence purple nutsedge; assay type: in vivo, Cyperus rotundus
Summary of the method: as §1

[14] = test system: morningglory; test: Test B pre/postemergence morningglory; assay type: in vivo, Ipomoea hederacea
Summary of the method: as §1

[15] = test system: surinam grass; test: Test B pre/postemergence surinam grass; assay type: in vivo, Brachiaria decumbens
Summary of the method: as §1

[16] = test system: velvetleaf; test: Test B pre/postemergence velvetleaf; assay type: in vivo, Abutilon theophrasti
Summary of the method: as §1

[17] = Preemergence, Rate 62 g/ha, scale of 0 to 10 where 0 is no effect and 10 is complete control
[18] = Preemergence, Rate 250 g/ha, scale of 0 to 10 where 0 is no effect and 10 is complete control
[19] = Preemergence, Rate 500 g/ha, scale of 0 to 10 where 0 is no effect and 10 is complete control
[20] = Rate 62 g/ha, Postemergence, scale 0 to 10, 0 no effect, 10 complete control
[21] = Rate 125 g/ha, Postemergence, scale of 0 to 10 where 0 is no effect and 10 is complete control
[22] = Rate 125 g/ha, Preemergence, scale of 0 to 10 where 0 is no effect and 10 is complete control
[23] = Rate 250 g/ha, Postemergence, scale of 0 to 10 where 0 is no effect and 10 is complete control
[24] = Rate 500 g/ha, Postemergence, scale 0 to 10, 0 no effect, 10 complete control

CC(=O)OCn1c(=O)on(C(=O)N(c2ccc(F)cc2)C(C)C)c1=O [Compound 292]
2: Plant response rating, Morningglory [14, 23]
0: Crabgrass plant response rating [1, 17] | Crabgrass plant response rating [1, 18] | Plant response rating, Crabgrass [1, 19] | Crabgrass plant response rating [1, 20] | Crabgrass plant response rating [1, 21] | Crabgrass plant response rating [1, 22] | Plant response rating, Crabgrass [1, 23] | Bedstraw plant response rating [2, 17] | Bedstraw plant response rating [2, 18] | Plant response rating, Bedstraw [2, 19] | Bedstraw plant response rating [2, 20] | Bedstraw plant response rating [2, 21] | Bedstraw plant response rating [2, 22] | Plant response rating, Bedstraw [2, 23] | Bedstraw plant response rating [2, 24] | Wild oats plant response rating [3, 17] | Wild oats plant response rating [3, 18] | Plant response rating, Wild oats [3, 19] | Wild oats plant response rating [3, 20] | Wild oats plant response rating [3, 21] | Plant response rating, Wild oats [3, 23] | Giant foxtail plant response rating [4, 17] | Giant foxtail plant response rating [4, 18] | Plant response rating, Giant foxtail [4, 19] | Giant foxtail plant response rating [4, 20] | Giant foxtail plant response rating [4, 21] | Giant foxtail plant response rating [4, 22] | Plant response rating, Giant foxtail [4, 23] | Corn plant response rating [5, 17] | Corn plant response rating [5, 18] | Plant response rating, Corn [5, 19] | Corn plant response rating [5, 20] | Corn plant response rating [5, 21] | Corn plant response rating [5, 22] | Plant response rating, Corn [5, 23] | Corn plant response rating [5, 24] | Wheat plant response rating [6, 17] | Wheat plant response rating [6, 18] | Plant response rating, Wheat [6, 19] | Wheat plant response rating [6, 20] | Wheat plant response rating [6, 21] | Wheat plant response rating [6, 22] | Plant response rating, Wheat [6, 23] | Blackgrass plant response rating [7, 17] | Blackgrass plant response rating [7, 18] | Plant response rating, Blackgrass [7, 19] | Blackgrass plant response rating [7, 20] | Blackgrass plant response rating [7, 21] | Blackgrass plant response rating [7, 22] | Plant response rating, Blackgrass [7, 23] | Blackgrass plant response rating [7, 24] | Cocklebur plant response rating [8, 17] | Cocklebur plant response rating [8, 18] | Plant response rating, Cocklebur [8, 19] | Cocklebur plant response rating [8, 20] | Cocklebur plant response rating [8, 21] | Cocklebur plant response rating [8, 22] | Plant response rating, Cocklebur [8, 23] | Cocklebur plant response rating [8, 24] | Sugarbeets plant response rating [9, 17] | Sugarbeets plant response rating [9, 18] | Plant response rating, Sugarbeets [9, 19] | Sugarbeets plant response rating [9, 20] | Sugarbeets plant response rating [9, 21] | Sugarbeets plant response rating [9, 22] | Plant response rating, Sugarbeets [9, 23] | Redroot pigweed plant response rating [10, 17] | Redroot pigweed plant response rating [10, 18] | Plant response rating, Redroot pigweed [10, 19] | Redroot pigweed plant response rating [10, 20] | Redroot pigweed plant response rating [10, 21] | Redroot pigweed plant response rating [10, 22] | Plant response rating, Redroot pigweed [10, 23] | Soybean plant response rating [11, 17] | Soybean plant response rating [11, 18] | Plant response rating, Soybean [11, 19] | Soybean plant response rating [11, 20] | Soybean plant response rating [11, 21] | Soybean plant response rating [11, 22] | Rape plant response rating [12, 17] | Rape plant response rating [12, 18] | Plant response rating, Rape [12, 19] | Rape plant response rating [12, 20] | Rape plant response rating [12, 21] | Rape plant response rating [12, 22] | Plant response rating, Rape [12, 23] | Nutsedge plant response rating [13, 17] | Nutsedge plant response rating [13, 18] | Plant response rating, Nutsedge [13, 19] | Nutsedge plant response rating [13, 20] | Nutsedge plant response rating [13, 21] | Nutsedge plant response rating [13, 22] | Plant response rating, Nutsedge [13, 23] | Morningglory plant response rating [14, 17] | Morningglory plant response rating [14, 18] | Plant response rating, Morningglory [14, 19] | Morningglory plant response rating [14, 20] | Morningglory plant response rating [14, 22] | B. signalgrass plant response rating [15, 17] | B. signalgrass plant response rating [15, 18] | Plant response rating, B. signalgrass [15, 19] | B. signalgrass plant response rating [15, 20] | B. signalgrass plant response rating [15, 21] | B. signalgrass plant response rating [15, 22] | Plant response rating, B. signalgrass [15, 23] | B. signalgrass plant response rating [15, 24] | Velvetleaf plant response rating [16, 17] | Velvetleaf plant response rating [16, 18] | Plant response rating, Velvetleaf [16, 19] | Velvetleaf plant response rating [16, 20] | Velvetleaf plant response rating [16, 21] | Velvetleaf plant response rating [16, 22] | Plant response rating, Velvetleaf [16, 23]
1: Plant response rating, Soybean [11, 23] | Morningglory plant response rating [14, 21]
